Laboratory results as given in patent US20230391741A1, “AGAROFURAN COMPOUND, PREPARATION METHOD THEREFOR, AND APPLICATION THEREOF” (BEIJING CHY PHARMACEUTICAL TECHNOLOGY CO, LTD., priority 2021, published 2023).
Entries after “also recorded” stand apart in the source; their conditions may differ.

Legend:
male ICR mice = test: Elevated plus maze (EPM) test, intraperitoneal injection; format: in vivo, mouse; conditions: for Open-arm residence times and entries compared with BAF: Tables 3 and 4, statistical differences at a low dose; for Efficacy compared with BAF: at low doses; for Closed arm number of entries / Closed arm residence time / Open arm number of entries / Open arm residence time / Open arm/closed arm frequency ratio / Open arm/closed arm time ratio: mice, intraperitoneal, 5 min before entering the maze
Description: The active ingredient used in the following pharmacological experiment, the compound shown in Formula (I) of the present application, is the final product in Example 1 of the present application, namely (1R,6S,9R)6,10,10-trimethyl-2-(4,4,4-trifluorobutyl)-11-oxatricyclo [7.2.1.0^1,6]dodec-2-ene (hereinafter referred to as Compound 2). Compound 2 and an excipient PVP (povidone K30) were mixed in an ethanol solution in a mass ratio of 1:15, spin-dried, and prepared into a preparation form of Compound 2 (the following Compound 2 refers to the preparation form of Compound 2). The preparation form of which the active ingredient was 4-butyl-α-agarofuran (BAF for short) was used as a positive drug, a preparation method for this preparation was the same as that of the preparation of Compound 2, and the following BAF refers to this preparation of BAF. PVP was a blank control. In addition, the administration dose was calculated according to a crude drug.
This model is one of the most commonly used animal models in the research of antianxiety drugs. The elevated plus maze is composed of an open arm (30×5×0.5 cm) and an closed arm (30×8×15 cm) that are crossed in a positive cross shape, and the instrument is suspended 50 cm above the ground. Due to the narrowness, suspension, and brightness of the open arm, there may be internal “fear” or conflict in the open arm, and on the contrary, it more complies with the nature of rodents in the closed arm. 5 min after administration, a mouse is placed in the center of the maze, and its head faces to the open arm. Open-arm and closed-arm entries and residence times in both arms during the experimental period (usually 5 min) are recorded respectively. The percentages of the open arm entries and the open arm residence times respectively accounting for the total entries (sum of the open arm and closed arm entries) and the total time (sum of the open arm and closed arm residence times) are calculated, as an indicator for evaluating the anxiety. Generally speaking, a drug is considered to have antianxiety effects in the case that the open arm cumulative residence time is prolonged without reducing the open arm and closed arm entries.
The experiment used male Institute of Cancer Research (ICR) mice (purchased from Beijing Weitong Lihua Experimental Animal Technology Co., Ltd.), the weight was 18-20 g, the mice were randomly divided into 7 groups according to the weight, and there were 13 mice in each group. Grip adaptation training was conducted on the mice before the experiment. Before the experiment, the mice were fasted for 12 hours. It was administered by an intraperitoneal injection mode. 4-butyl-α-agarofuran (BAF for short) was used as a positive drug, and PVP was a blank control. The specific grouping and disposal modes are as follows:
During detection, after intraperitoneal injection of BAF/Compound 2, each mouse was immediately placed in an open animal box and allowed to move freely for 5 min, then the mouse was placed on a central platform of the elevated plus maze, its head faced to a fixed open arm. The detection was started, timed for 5 min, and recorded with a supermaze software by using a camera head. After all the experiments were completed, the residence times (s) of the mice in the open arm and the closed arm, the open arm and closed arm entries, and the time ratios and frequency ratios of the open arm and closed arm entries were recorded with the supermaze software. 1 was added to the number of entry arms with a latency of 0.

[1] = Plasma pharmacokinetics after intraperitoneal injection in mouse (UPLC-MS/MS); format: in vivo; conditions: for AUC(0-t) / half-life / Cmax: male, ICR; for AUC(0-t) / half-life: plasma; for AUC(0-t): 10 mg/kg, according to the above method, read-out: AUC(0-t); for AUC(0-t) / half-life / Pharmacokinetic properties compared with BAF: mouse; for AUC(0-t) / Pharmacokinetic properties compared with BAF: IP; for half-life / Cmax: IP 10 mg/kg; for Cmax: mouse plasma, prototype drug
Description: Positive control drug 4-butyl-α-agarofuran preparation (BAF) and Compound 2 preparation were administered intraperitoneally at a dose of 10 mg/kg/10 ml (calculated according to the crude drug), and a suspension was prepared by ultrasonic grinding with double distilled water. Male ICR mice, with a weight of 21-24 g, were purchased from SPF (Beijing) Biotechnology Co., Ltd.
12 mice were randomly divided into 4 groups, there were 3 parallel cross blood sampling points in each group (5 points in groups 1 and 3, and 6 points in groups 2 and 4), it was administered according to the weight, and blood was collected from the orbital venous plexus at 5 min, 10 min, […], 30 min, 1 h, 2 h, 4 h, 6 h, 8 h, 12 h, and 24 h after administration. The bloods at each time point were collected into Eppendorf (EP) tubes anticoagulated with heparin, and placed on ice and centrifuged at 8000 r/min×5 min, to separate plasma for later use.
20 μl of mouse blank plasma was taken, 55 μl of acetonitrile containing an internal standard solution (200 ng/mL, BAF crude drug and Compound 2 crude drug are mutual internal standards, namely BAF was used as the internal standard of Compound 2, and Compound 2 was used as the internal standard of BAF, similarly hereinafter) is added, 5 μl of a methanol working solution of the compound BAF or Compound 2 with different concentrations was respectively added and mixed uniformly, so that its final plasma concentrations were 0.2, 0.5, 2, 5, 10, 25, 50, 100, 200, 500, 750, and 1000 ng/ml respectively, centrifugation was conducted twice at a high speed of 13000 r/min×5 min, and 5 μl of a supernatant was taken for UPLC-MS/MS analysis.
10 μL of plasma was taken, 30 μL of acetonitrile containing internal standard solution (100 ng/mL) was added to precipitate proteins, after the material was centrifuged twice at a high speed of 13000 r/min×5 min, 5 μl of a supernatant was taken for UPLC-MS/MS analysis.
Chromatographic column: Symmetry C8 (2.1 mm×50 mm, 3.5 μm), column temperature: 25° C., mobile phase: acetonitrile (0.1% formic acid): water (0.1% formic acid)=70:30 gradient elution, flow rate: 0.2 mL/min, Parallel Reaction Monitoring (PRM) detection, BAF: m/z 263.2→245.2; and Compound 2: m/z 317.2→299.2.

SMILES	Open-arm residence times and entries compared with BAF (male ICR mice)	Efficacy compared with BAF (male ICR mice)	Closed arm number of entries (male ICR mice; 2.4 mg/kg)	Closed arm residence time (male ICR mice; 2.4 mg/kg) [s]	Open arm number of entries (male ICR mice; 2.4 mg/kg)	Open arm residence time (male ICR mice; 2.4 mg/kg) [s]	Open arm/closed arm frequency ratio (male ICR mice; 2.4 mg/kg)	Open arm/closed arm time ratio (male ICR mice; 2.4 mg/kg)	Closed arm number of entries (male ICR mice; 4.8 mg/kg)	Closed arm residence time (male ICR mice; 4.8 mg/kg) [s]	Open arm number of entries (male ICR mice; 4.8 mg/kg)	Open arm residence time (male ICR mice; 4.8 mg/kg) [s]	Open arm/closed arm frequency ratio (male ICR mice; 4.8 mg/kg)	Open arm/closed arm time ratio (male ICR mice; 4.8 mg/kg)	Closed arm number of entries (male ICR mice; 9.6 mg/kg)	Closed arm residence time (male ICR mice; 9.6 mg/kg) [s]	Open arm number of entries (male ICR mice; 9.6 mg/kg)	Open arm residence time (male ICR mice; 9.6 mg/kg) [s]	Open arm/closed arm frequency ratio (male ICR mice; 9.6 mg/kg)	Open arm/closed arm time ratio (male ICR mice; 9.6 mg/kg)	other results
CC1(C)O[C@]23C[C@H]1CC[C@]2(C)CCC=C3CCCCC(F)(F)F [Compound 6, (1R,6S,9R)6,10,10-trimethyl-2-(5,5,5-trifluoropentyl)-11-oxatricyclo [7.2.1.0^1,6]dodec-2-ene]	prolonged	better efficacy	11.00 ± 0.83	129.22 ± 9.33	9.11 ± 0.54	126.19 ± 8.01	0.86 ± 0.07	0.98 ± 0.15	10.00 ± 0.60	154.33 ± 7.85	8.88 ± 0.55	116.53 ± 6.42	0.90 ± 0.05	0.78 ± 0.07	8.56 ± 1.19	140.04 ± 15.48	8.78 ± 1.53	111.29 ± 11.05	1.06 ± 0.13	0.91 ± 0.17	AUC(0-t) [1]: 142 ng·h/mL; half-life [1]: 83.4 min; Cmax [1]: 342 ng/mL; Pharmacokinetic properties compared with BAF [1]: superior to BAF; also recorded: better pharmacokinetic properties
[2H]C1[C@H]2CC[C@]3(C)CC([2H])([2H])C=C(CCCC(F)(F)F)[C@@]13OC2(C)C (stereo partly drawn) [Compound 8, (1R,6R,9R)6,10,10-trimethyl-2-(4,4,4-trifluorobutyl)-4,4,10-trideuterium-11-oxatricyclo [7.2.1.0^1,6]dodec-2-ene]	prolonged	better efficacy	10.86 ± 1.30	126.36 ± 11.90	9.43 ± 0.78	134.90 ± 9.73	0.93 ± 0.10	1.20 ± 0.26	10.00 ± 0.63	147.85 ± 10.01	9.10 ± 0.87	117.97 ± 8.25	0.93 ± 0.10	0.88 ± 0.14	10.00 ± 1.20	139.21 ± 14.30	8.70 ± 0.94	112.96 ± 9.69	0.90 ± 0.07	0.93 ± 0.16	AUC(0-t) [1]: 148 ng·h/mL; half-life [1]: 84.6 min; Cmax [1]: 350 ng/mL; Pharmacokinetic properties compared with BAF [1]: superior to BAF; also recorded: better pharmacokinetic properties
